According to patent publication US20260285850A1, “SUBSTITUTED OXAZOLIDINONES AND IMIDAZOLINONES AS HERBICIDES” (FMC CORPORATION, priority 2023, published 2026):

Legend:
Assay type in all cases: in vivo
[1] = system: palmer (palmer amaranth, palmer pigweed, Amaranthus palmeri); experiment: Test A preemergence soil spray, visual injury rating 0-100; conditions: 1000 g ai/ha, 10 days, 0 = no effect, 100 = complete control
Outline: (§1)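 Plants were grown in a loam soil-sand blend and treated with test chemical in a non-phytotoxic solvent mixture containing surfactant, either sprayed on soil preemergence or applied postemergence to 2-10 cm plants. After 10 days in a greenhouse, injury was scored visually against untreated controls, 0 meaning no effect and 100 complete control.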

[2] = system: foxtail, giant (giant foxtail, Setaria faberi); experiment: as above; conditions: 1000 g ai/ha, 10 days, 0 = no effect, 100 = complete control
Outline: as §1

[3] = system: ragweed (common ragweed, Ambrosia artemisiifolia); experiment: as above; conditions: 1000 g ai/ha, 10 days, 0 = no effect, 100 = complete control
Outline: as §1

[4] = system: blackgrass (Alopecurus myosuroides); experiment: as above; conditions: 1000 g ai/ha, 10 days, 0 = no effect, 100 = complete control
Outline: as §1

kochia (Bassia scoparia) [5] = experiment: as above; conditions: 1000 g ai/ha, 10 days, 0 = no effect, 100 = complete control
Outline: as §1

[6] = system: ryegrass, Italian (italian ryegrass, Lolium multiflorum); experiment: as above; conditions: 1000 g ai/ha, 10 days, 0 = no effect, 100 = complete control
Outline: as §1

[7] = system: barnyardgrass (Echinochloa crus-galli); experiment: as above; conditions: 1000 g ai/ha, 10 days, 0 = no effect, 100 = complete control
Outline: as §1

[8] = system: palmer (palmer amaranth, palmer pigweed, Amaranthus palmeri); experiment: Test A postemergence application, visual injury rating 0-100; conditions: Postemergence, 1000 g ai/ha, 0 to 100 scale, 10 days
Outline: as §1

[9] = system: horseweed (Erigeron canadensis); experiment: as above; conditions: Postemergence, 1000 g ai/ha, 0 to 100 scale, 10 days
Outline: as §1

[10] = system: foxtail, giant (giant foxtail, Setaria faberi); experiment: as above; conditions: 1000 g ai/ha, 0 to 100 scale, 10 days
Outline: as §1

[11] = system: ragweed (common ragweed, Ambrosia artemisiifolia); experiment: as above; conditions: Postemergence, 1000 g ai/ha, 0 to 100 scale, 10 days
Outline: as §1

[12] = system: blackgrass (Alopecurus myosuroides); experiment: as above; conditions: Postemergence, 1000 g ai/ha, 0 to 100 scale, 10 days
Outline: as §1

kochia (Bassia scoparia) [13] = experiment: as above; conditions: Postemergence, 1000 g ai/ha, 0 to 100 scale, 10 days
Outline: as §1

[14] = system: galium (catchweed bedstraw, Galium aparine); experiment: as above; conditions: Postemergence, 1000 g ai/ha, 0 to 100 scale, 10 days
Outline: as §1

[15] = system: ryegrass, Italian (italian ryegrass, Lolium multiflorum); experiment: as above; conditions: Postemergence, 1000 g ai/ha, 0 to 100 scale, 10 days
Outline: as §1

[16] = system: barnyardgrass (Echinochloa crus-galli); experiment: as above; conditions: Postemergence, 1000 g ai/ha, 0 to 100 scale, 10 days
Outline: as §1

[17] = system: ducksalad (Heteranthera limosa); experiment: Test B flooded paddy test, visual plant response rating 0-100; conditions: 250 g ai/ha, Flood, applied to paddy water, evaluated after 13 days
Outline: (§2)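 Visual scores versus untreated controls were recorded 13 days after treatment of greenhouse-held plants. At the 2-leaf stage, pots were flooded 3 cm above the soil surface and compounds added straight to the water.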

[18] = system: sedge, umbrella (small-flower umbrella sedge, Cyperus difformis); experiment: as above; conditions: 250 g ai/ha, Flood, applied to paddy water, evaluated after 13 days
Outline: as §2

rice (Oryza sativa) = experiment: as above; conditions: 250 g ai/ha, Flood, applied to paddy water, evaluated after 13 days
Outline: as §2

[19] = system: barnyardgrass (Echinochloa crusgalli); experiment: as above; conditions: 250 g ai/ha, Flood, applied to paddy water, evaluated after 13 days
Outline: as §2

Structure (SMILES) | Amaranth, Palmer / Pigweed, Palmer plant response rating (0 to 100 scale) [1] | Foxtail, Giant plant response rating (0 to 100 scale) [2] | Ragweed plant response rating (0 to 100 scale) [3] | Blackgrass plant response rating (0 to 100 scale) [4] | Kochia plant response rating (0 to 100 scale) (kochia (Bassia scoparia) [5]) | Ryegrass, Italian plant response rating (0 to 100 scale) [6] | Barnyardgrass plant response rating (0 to 100 scale) [7] | Amaranth, Palmer plant response rating [8] | Horseweed plant response rating [9] | Foxtail, Giant plant response rating [10] | Ragweed plant response rating [11] | Blackgrass plant response rating [12] | Kochia plant response rating (kochia (Bassia scoparia) [13]) | Galium plant response rating [14] | Ryegrass, Italian plant response rating [15] | Barnyardgrass plant response rating [16] | Plant response rating, Ducksalad (0 to 100 scale, 0 is no effect and 100 is complete control) [17] | Plant response rating, Sedge, Umbrella (0 to 100 scale, 0 is no effect and 100 is complete control) [18] | Plant response rating, Rice (0 to 100 scale, 0 is no effect and 100 is complete control) (rice (Oryza sativa)) | Plant response rating, Barnyardgrass (0 to 100 scale, 0 is no effect and 100 is complete control) [19]
CSCCOC(=O)[C@@H]1C=C[C@H](NC(=O)C2(C)CN(c3cc(F)cc(F)c3)C(=O)O2)C1 (stereo partly drawn) [Compound 48, 2-(Methylthio)ethyl (1S,4R)-4-[[[3-(3,5-difluorophenyl)-5-methyl-2-oxo-5-oxazolidinyl]carbonyl]amino]-2-cyclopentene-1-carboxylate] | 100 | 100 | 90 | 90 | 100 | 100 | 100 | 90 | 70 | 90 | 70 | 100 | 70 | 80 | 90 | 90 | 70 | 80 | 65 | 70
CCCS(=O)(=O)NC(=O)C1C=CC(NC(=O)C2(C)CN(c3cc(F)cc(F)c3)C(=O)O2)C1 (stereo not drawn) [Compound 50] | 100 | 90 | 50 | 90 | 100 | 100 | 90 | 90 | 70 | 90 | 70 | 90 | 70 | 80 | 100 | 90 | 70 | 60 | 75 | 60
CC(C)OC(=O)C1C=CC(NC(=O)C2(C)CN(c3cc(F)cc(F)c3)C(=O)O2)C1 (stereo not drawn) [Compound 52] | 100 | 100 | 90 | 90 | 100 | 100 | 100 | 90 | 100 | 90 | 70 | 90 | 70 | 80 | 60 | 100 | 60 | 90 | 65 | 75
